From US8101624B2, “Quinazoline derivatives” (Aska Pharmaceutical Co., Ltd., priority 2006, dated 2012) come the findings set out here.

The test addresses T1, human recombinant PDE9 protein (hsPDE9A1) (Homo sapiens, UniProt O76083).
T1 construct: made in house; host or cells: COS-1 cells (transient transfection, pcDNA 3.1(+))
Put plainly: Measurement of PDE9-inhibiting activity ([3H]-cGMP hydrolysis). The format is biochemical. The settings on record: for inhibition at 1 µM: human recombinant PDE9, read-out: Inhibiting Activity PDE9 (percent inhibition at 1 μM). Here is the method: (1) Measurement of PDE9-Inhibiting Activity:
1) Preparation of Human Recombinant PDE9 Protein
Based on the base sequence of hsPDE9A1 registered with GenBank database (accession No.: AF048837), hsPDE9A1 fragment was amplified by polymerase chain reaction under the following conditions, using the following sequence (Amasham Pharmacia Biotech) as the primer and Human Prostate […] cDNA library (CLONTECH) as the template DNA, with Pfu Turbo DNA polymerase ([…]):
PCR condition: [95° C., 5 min]×1 cycle, [(95° C., 1 min), (58° C., 2 min), (72° C., 3 min)]×25 cycles, [72° C., 10 min]×1 cycle
Thus obtained hsPDE9A1 fragment was given a restricted enzymatic treatment with NheI and NotI, and thereafter inserted into pcDNA 3.1(+) expression vector (Invitrogen) to let it serve as a human PDE9 expression vector.
Human PDE9 expression vector-transformed Escherichia coli was mass incubated to produce a large amount of human PDE9 expression vector, which was transiently transfected into COS-1 cells, with LIPOFECTAMINE 2000 Reagent (GIBCO). The cells were homogenized in ice-cooled buffer A (40 mmol/L Tris-HCl, pH7.5, 15 mmol/L benzamidine, 15 mmol/L 2-mercaptoethanol, 1 μg/mL Pepstatin A, 1 μg/mL Leupeptin, 5 mmol/L EDTA) and centrifuged at 4° C., 14,000×g for 10 minutes. The supernatant was isolated to provide human recombinant PDE9 protein solution.
2) Measurement of PDE9-Inhibiting Activity
To 150 μL of buffer B (70 mmol/L Tris-HCl, pH7.5; 16.7 mmol/L MgCl2, 33.3 nmol/L [^3H]-cGMP) solution containing [^3H]-cGMP (specific activity=244.2 GBq/mmol) at a concentration of 33.3 nmol/L, 50 μL of a solution of the compound to be evaluated (formed by dissolving the compound in DMSO and diluting it with distilled water to DMSO concentration of 5%) and 50 μL of the PDE9 protein solution as prepared in the above, as diluted with buffer C (40 mmol/L Tris-HCl, pH7.5, 15 mmol/L benzamidine, 15 mmol/L 2-mercaptoethanol, 1 μg/mL Pepstatin A, 1 μg/mL Leupeptin) by 1,500×, were added under cooling with ice. This mixed solution was incubated at 30° C. for 30 minutes and the enzymatic reaction of PDE9 was terminated by heating the system in boiling water for 90 seconds. Returning the system to room temperature, 50 μL of Snake venom (SIGMA: 1 mg/mL) was added, followed by 10 minutes' incubation at 30° C., to convert the [^3H]-5′-GMP produced in the previous reaction to [^3H]-guanosine. This reaction solution was passed through a column filled with 1 mL of 0.5 mol/L hydrochloric acid-activated cation-exchange resin (Bio-Rad AG50W-X4 resin, mesh size 200-400) and removed of the unreacted substrate ([^3H]-cGMP) by elution with 12 mL of distilled water. Thereafter [^3H]-guanosine was eluted with 3 mL of 3 mol/L aqueous ammonia and its radiation activity was measured with liquid scintillation counter.
PDE9 inhibition of the tested compound can be calculated by the following formula: […]
From the percent inhibition at various concentration levels of each tested compound, its IC50 value against PDE9 can be determined.

Broadly, the inhibition is the drop in the measured response relative to a control, in per cent. As usually defined, the IC50 is the concentration that gives 50% inhibition.

T1 sequence (O76083 whole entry): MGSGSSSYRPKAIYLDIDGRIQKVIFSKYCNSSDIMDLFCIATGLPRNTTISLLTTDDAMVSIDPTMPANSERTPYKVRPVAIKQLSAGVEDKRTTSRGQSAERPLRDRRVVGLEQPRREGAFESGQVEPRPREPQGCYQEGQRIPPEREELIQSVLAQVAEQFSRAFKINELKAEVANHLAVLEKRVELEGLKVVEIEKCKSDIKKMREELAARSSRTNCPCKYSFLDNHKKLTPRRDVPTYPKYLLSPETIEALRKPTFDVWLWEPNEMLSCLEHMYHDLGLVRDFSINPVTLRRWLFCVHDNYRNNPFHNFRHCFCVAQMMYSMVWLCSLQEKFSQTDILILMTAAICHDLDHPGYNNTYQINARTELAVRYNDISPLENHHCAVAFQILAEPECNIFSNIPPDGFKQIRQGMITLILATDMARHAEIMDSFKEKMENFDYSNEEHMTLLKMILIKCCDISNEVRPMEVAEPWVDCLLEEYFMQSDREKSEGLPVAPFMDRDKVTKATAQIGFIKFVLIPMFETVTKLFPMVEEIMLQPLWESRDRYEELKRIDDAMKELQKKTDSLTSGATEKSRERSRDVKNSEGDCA

Take `COc1ccc(Cc2nc3cc(C(=O)O)ccc3c(=O)[nH]2)cc1OC` [Example 3, 2-(3,4-Dimethoxybenzyl)-4-oxo-3,4-dihydroquinazoline-7-carboxylic acid]: the inhibition at 1 µM came to 11%.

On to `COc1cccc(Cc2nc3cc(C(=O)O)ccc3c(=O)[nH]2)c1` [Example 5, 2-(3-Methoxybenzyl)-4-oxo-3,4-dihydroquinazoline-7-carboxylic acid], for which the inhibition at 1 µM is 41%.

For the molecule `O=C(O)c1ccc2c(=O)[nH]c(Cc3ccccn3)nc2c1` [Example 6, 4-Oxo-2-(2-pyridylmethyl)-3,4-dihydroquinazoline-7-carboxylic acid], the IC50 (human recombinant PDE9 expressed in COS-1 cells, 30° C., 30 minutes) turned out to be 1.36 µM.

Turning to `O=C(O)c1ccc2c(=O)[nH]c(Cc3cccnc3)nc2c1` [Example 7, 4-Oxo-2-(3-pyridylmethyl)-3,4-dihydroquinazoline-7-carboxylic acid], the inhibition at 1 µM came to 30%.

`Cn1c(Cc2cccc(Cl)c2)nc2cc(C(=O)O)ccc2c1=O` [Referential Example 1, 2-(3-Chlorobenzyl)-3-methyl-4-oxo-3,4-dihydroquinazoline-7-carboxylic acid, reference compound]: the “PDE9-inhibiting activity relative to that of the compound of Example 1” value (ratio of activity versus Example 1) is reported as “less than 1/100”.
